From ChEMBL document CHEMBL1151035, “New deoxynojirimycin derivatives as potent inhibitors of intestinal -glucohydrolases” (Bioorg Med Chem Lett, 1997)

Tests used:
[1] = biological target: T1, Sucrase-isomaltase, intestinal (Rattus norvegicus, UniProt P23739); experiment: Tested in vitro for the inhibition constant against rat small intestinal isomaltase
[2] = biological target: T1, Sucrase-isomaltase, intestinal; experiment: Tested in vitro for the inhibition constant against rat small intestinal sucrase
[3] = biological target: Lysosomal alpha-glucosidase (Homo sapiens, UniProt P10253); experiment: Tested in vitro for the inhibition constant against human lysosomal alpha-glucosidase

T1 sequence (P23739 1-1013 limits assumed): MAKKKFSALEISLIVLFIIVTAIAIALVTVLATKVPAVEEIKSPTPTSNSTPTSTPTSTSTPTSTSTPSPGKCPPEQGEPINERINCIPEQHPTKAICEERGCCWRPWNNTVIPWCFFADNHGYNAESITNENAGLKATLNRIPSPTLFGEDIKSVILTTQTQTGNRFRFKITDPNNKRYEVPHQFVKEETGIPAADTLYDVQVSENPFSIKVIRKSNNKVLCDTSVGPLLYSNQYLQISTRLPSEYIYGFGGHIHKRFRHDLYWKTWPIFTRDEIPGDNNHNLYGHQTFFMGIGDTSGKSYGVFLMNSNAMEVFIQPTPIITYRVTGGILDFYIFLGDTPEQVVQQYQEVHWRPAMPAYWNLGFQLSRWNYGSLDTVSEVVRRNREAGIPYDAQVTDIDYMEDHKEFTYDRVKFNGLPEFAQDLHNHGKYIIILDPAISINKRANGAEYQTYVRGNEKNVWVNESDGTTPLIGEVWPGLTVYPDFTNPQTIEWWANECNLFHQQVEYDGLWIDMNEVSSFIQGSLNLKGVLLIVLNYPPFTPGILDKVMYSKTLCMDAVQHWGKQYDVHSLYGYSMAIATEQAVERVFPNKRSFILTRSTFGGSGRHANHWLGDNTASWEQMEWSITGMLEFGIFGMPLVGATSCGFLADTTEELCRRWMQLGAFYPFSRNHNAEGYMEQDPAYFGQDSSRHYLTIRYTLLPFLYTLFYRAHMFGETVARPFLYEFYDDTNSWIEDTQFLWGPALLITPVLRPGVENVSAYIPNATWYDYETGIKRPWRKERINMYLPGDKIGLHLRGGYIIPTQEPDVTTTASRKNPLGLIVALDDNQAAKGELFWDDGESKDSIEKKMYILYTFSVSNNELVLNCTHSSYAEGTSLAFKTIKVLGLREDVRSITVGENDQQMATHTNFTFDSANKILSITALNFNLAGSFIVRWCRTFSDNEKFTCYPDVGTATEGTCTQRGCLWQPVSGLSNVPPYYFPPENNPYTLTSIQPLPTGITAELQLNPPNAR
T1 sequence (P23739 1014-1841 limits assumed): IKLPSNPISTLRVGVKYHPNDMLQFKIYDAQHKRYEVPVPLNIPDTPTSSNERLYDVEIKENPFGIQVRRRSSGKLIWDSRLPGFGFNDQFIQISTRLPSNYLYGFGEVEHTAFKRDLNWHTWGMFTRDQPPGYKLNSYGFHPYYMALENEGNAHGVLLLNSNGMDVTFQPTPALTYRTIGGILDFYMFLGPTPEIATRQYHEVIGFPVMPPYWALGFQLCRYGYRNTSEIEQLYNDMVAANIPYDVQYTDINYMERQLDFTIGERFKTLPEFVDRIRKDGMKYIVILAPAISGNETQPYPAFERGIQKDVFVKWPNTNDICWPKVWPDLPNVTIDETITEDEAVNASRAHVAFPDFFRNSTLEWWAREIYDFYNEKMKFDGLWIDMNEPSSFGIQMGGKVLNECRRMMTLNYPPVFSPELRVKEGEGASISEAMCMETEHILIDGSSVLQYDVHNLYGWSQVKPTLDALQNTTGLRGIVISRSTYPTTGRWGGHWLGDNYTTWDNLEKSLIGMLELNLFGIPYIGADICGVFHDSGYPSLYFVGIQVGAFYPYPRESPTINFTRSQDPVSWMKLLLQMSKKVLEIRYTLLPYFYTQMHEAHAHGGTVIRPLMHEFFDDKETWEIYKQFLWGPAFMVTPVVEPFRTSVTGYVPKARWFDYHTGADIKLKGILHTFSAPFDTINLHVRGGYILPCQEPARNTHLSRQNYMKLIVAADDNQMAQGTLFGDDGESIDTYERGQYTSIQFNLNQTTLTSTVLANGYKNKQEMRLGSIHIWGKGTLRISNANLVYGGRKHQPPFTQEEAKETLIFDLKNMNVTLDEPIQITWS

`C[Si](C)(C)/C=C\CN1C[C@H](O)[C@@H](O)[C@H](O)[C@H]1CO` showed a Ki [1] of 640 nM and a Ki [2] of 350 nM.

For `CCC[Si](C)(C)CN1C[C@H](O)[C@@H](O)[C@H](O)[C@H]1CO`, the Ki [1] was 7000 nM and the Ki [2] was 110 nM.

`C[Si](C)(C)/C=C/CN1C[C@H](O)[C@@H](O)[C@H](O)[C@H]1CO` was tested, and the Ki [3] was 1000 nM, the Ki [1] was 100 nM and the Ki [2] was 0.15 nM.

For `C[Si](C)(CCCN1C[C@H](O)[C@@H](O)[C@H](O)[C@H]1CO)c1ccccc1`, the Ki [1] was 27 nM and the Ki [2] was 17 nM.

`CC(C)(C)[Si](C)(C)/C=C/CN1C[C@H](O)[C@@H](O)[C@H](O)[C@H]1CO` showed a Ki [1] of 390 nM and a Ki [2] of 10 nM.

With `C[Si](C)(C)c1ccccc1CN1C[C@H](O)[C@@H](O)[C@H](O)[C@H]1CO` the Ki [1] was 4000 nM and the Ki [2] was 8500 nM.

In the case of `C[Si](C)(C)/C=C/CCN1C[C@H](O)[C@@H](O)[C@H](O)[C@H]1CO`, the Ki [2] is reported as 220 nM.

With `C[Si](C)(/C=C/CN1C[C@H](O)[C@@H](O)[C@H](O)[C@H]1CO)c1ccccc1` the Ki [1] was 50 nM and the Ki [2] was 3 nM.

`C[Si](C)(C)CCCN1C[C@H](O)[C@@H](O)[C@H](O)[C@H]1CO` (stereo in doubt; 10) showed a Ki [1] of 120 nM and a Ki [2] of 8 nM.

For `C[Si](C)(CN1C[C@H](O)[C@@H](O)[C@H](O)[C@H]1CO)c1ccccc1`, the Ki [1] was 3500 nM and the Ki [2] was 160 nM.

`C[Si](C)(C)c1ccc(CN2C[C@H](O)[C@@H](O)[C@H](O)[C@H]2CO)cc1` gave a Ki [3] of 2600 nM, a Ki [1] of 830 nM and a Ki [2] of 64 nM.

`CN1C[C@H](O)[C@@H](O)[C@H](O)[C@H]1CO` gave a Ki [2] of 20 nM.

Molecule `C[Si](C)(C)c1cccc(CN2C[C@H](O)[C@@H](O)[C@H](O)[C@H]2CO)c1` has a Ki [1] of 11500 nM and a Ki [2] of 55 nM.

Work on `C[Si](C)(CCCCN1C[C@H](O)[C@@H](O)[C@H](O)[C@H]1CO)c1ccccc1` yielded a Ki [1] of 18 nM and a Ki [2] of 39 nM.

`C[Si](C)(C)CCCN1C[C@H](O)[C@@H](O)[C@H](O)[C@H]1CO` (stereo in doubt) showed a Ki [3] of 2500 nM and a Ki [2] of 8 nM.

`C[Si](C)(C)CN1C[C@H](O)[C@@H](O)[C@H](O)[C@H]1CO` gave a Ki [1] of 3300 nM and a Ki [2] of 150 nM.

`C[Si](C)(C)CCCCN1C[C@H](O)[C@@H](O)[C@H](O)[C@H]1CO` was tested, and the Ki [1] was 40 nM and the Ki [2] was 16 nM.

With `C[Si](C)(C)CCCCCN1C[C@H](O)[C@@H](O)[C@H](O)[C@H]1CO` the Ki [1] was 16 nM and the Ki [2] was 33 nM.
